Test results as given in patent US20150150893A1, “ANDROGRAPHOLIDE ANALOGS AND THEIR USE FOR MEDICATION” (LIAONING LIFENG SCIENTIFIC & TECHNOLOGY DEVELOPMENT COMPANY …, priority 2012, published 2015).

How the values were obtained:
Type in all cases: cell-based
many virus = assay: Antivirus studies in vitro, summary over the virus panel; details: read-out: EC50 against many virus
Description: compounds were diluted to 20 mg/mL in DMSO then prepared in for log 10 dilutions of 100 μg/mL down to 0.1 μg/mL) in MEM solution with 50 μg/mL gentamicin and 2% FBS. Each dilution was added to 5 wells of a 96-well plate with 80-100% confluent cells. Three wells of each dilution were infected with virus, and two wells remained uninfected as toxicity controls. The multiplicity of infection (MOI) was as low as possible to achieve CPE within 3-5 days of incubation. A known active compound was tested in parallel as a control. After untreated virus control wells reached maximum cytopathic effect (CPE), each well was scored microscopically. Plates were then stained with neutral red dye for approximately 2 hours, then supernatant dye was removed from the wells and the incorporated dye was extracted in 50:50 Sorensen citrate buffer/ethanol, then the optical density was read on a spectrophotometer.

Influenza A virus H1N1 = assay: microbe, parasite or virus in culture; details: H1N1, read-out: In-Vitro Antiviral Screening Result (EC50) H
[1] = system: Japanese encepahalitis virus; details: read-out: In-Vitro Antiviral Screening Result (EC50) C
Rift Valley fever virus = assay: microbe, parasite or virus in culture; details: read-out: In-Vitro Antiviral Screening Result (EC50) E
SARS coronavirus = assay: microbe, parasite or virus in culture; details: Severe acute respiratory syndrome coronavirus, read-out: In-Vitro Antiviral Screening Result (EC50) F
[2] = system: Venezuelan equine encephalitis virus; assay: microbe, parasite or virus in culture; details: read-out: In-Vitro Antiviral Screening Result (EC50) G

CCN(CC)c1ccc(/C=C2C=C(/C=C/C3C4(CCC5[C@]3(C)CC[C@@H](O)[C@@]5(C)CO)CO4)C(=O)O\2)c(O)c1 (stereo partly drawn) [Example 66]
EC50 (many virus): < 50 µg/mL | EC50 (Influenza A virus H1N1): < 100 µg/mL | EC50 [1]: < 50 µg/mL | EC50 (Rift Valley fever virus): < 100 µg/mL | EC50 (SARS coronavirus): < 100 µg/mL | EC50 [2]: < 50 µg/mL

CN(C)c1ccc(/C=C2C=C(/C=C/C3C4(CCC5[C@]3(C)CC[C@@H](O)[C@@]5(C)CO)CO4)C(=O)O\2)c(O)c1 (stereo partly drawn) [Example 78]
EC50 (many virus): < 50 µg/mL | EC50 (Influenza A virus H1N1): > 100 µg/mL | EC50 [1]: < 100 µg/mL | EC50 (Rift Valley fever virus): < 100 µg/mL | EC50 (SARS coronavirus): < 50 µg/mL | EC50 [2]: < 100 µg/mL

C=C1CCC2[C@](C)(CC[C@@H](O)[C@@]2(C)CO)C1/C=C/C1=CC(=C\c2ccc(N(C)C)cc2O)/OC1=O (stereo partly drawn) [Example 44]
EC50 (many virus): < 50 µg/mL | EC50 (Influenza A virus H1N1): < 100 µg/mL | EC50 [1]: > 100 µg/mL | EC50 (Rift Valley fever virus): > 100 µg/mL | EC50 (SARS coronavirus): < 50 µg/mL | EC50 [2]: > 100 µg/mL

C[C@]12CC[C@@H](O)[C@@](C)(CO)C1CCC1(CO1)C2/C=C/C1=CC(=C\c2cnc(N3CCCC3CO)nc2)/OC1=O (stereo partly drawn) [Example 69, 11,12-dedihydro-14-deoxy-(E)-15-((2-(2-(hydroxymethyl)pyrrolidin-1-yl)pyrimidin-5-yl)methylene)-8,17-epoxyandrographolide]
EC50 (many virus): < 50 µg/mL | EC50 (Influenza A virus H1N1): < 100 µg/mL | EC50 [1]: > 100 µg/mL | EC50 (Rift Valley fever virus): < 50 µg/mL | EC50 (SARS coronavirus): < 50 µg/mL | EC50 [2]: > 100 µg/mL

CC(=O)OCC1(C)C(OC(C)=O)CCC2(C)C(/C=C/C3=CCOC3=O)C3C(=Nc4cncn43)CC12 (stereo not drawn) [Example 95]
EC50 (many virus): < 50 µg/mL | EC50 (Influenza A virus H1N1): < 50 µg/mL | EC50 [1]: > 100 µg/mL | EC50 (Rift Valley fever virus): > 100 µg/mL | EC50 (SARS coronavirus): < 50 µg/mL | EC50 [2]: < 100 µg/mL

C=C1CCC2[C@](C)(CC[C@@H](O)[C@@]2(C)CO)C1/C=C/C1=CC(=C\C2=CN3CC(=O)N(C)C3C=C2)/OC1=O (stereo partly drawn) [Example 63, 11,12-dedihydro-14-deoxy-(E)-15-((1-methyl-2-oxo-1,2,3,8a-tetrahydroimidazo[1,2-a]pyridin-6-yl)methylene)andrographolide]
EC50 (many virus): < 50 µg/mL | EC50 (Influenza A virus H1N1): < 50 µg/mL | EC50 [1]: < 100 µg/mL | EC50 (Rift Valley fever virus): < 50 µg/mL | EC50 (SARS coronavirus): < 50 µg/mL | EC50 [2]: < 100 µg/mL
